Measurements from paper PMC1456331 (Nucleic Acids Research, 2006).

Experiments:
[1] = tested on: Phoenix Eco cells
[2] = tested on: Phoenix Eco cells; assay: Cellular uptake of fluorescein-labeled oligomers; type: cell-based
[3] = tested on: Phoenix Eco cells; assay: Live-cell confocal microscopy, intracellular localization; type: cell-based
[4] = estimated; 5 µM oligomer, 37°C, DMEM/10% FBS; denaturing gel, densitometry

Compound	cell viability [1]	time of maximum uptake ([2]; in the presence of LFA) [h]	fluorescence in treated cells (in words) ([2]; in the presence of Lipofectamine-2000 (LFA), oligomer or its duplex with CT-ODN, after 4 h already)	intracellular distribution (in words) [3]	half-life [4] [h]
CCN(CC)CCCC(C)Nc1ccnc2cc(Cl)ccc12 (centres unmarked) [chloroquine]	80–85%				
pHypNA TCACTCAACACTCAC-Flu: fluorescein-labeled trans-L pHypNA oligomer, sequence TCACTCAACACTCAC-Flu (pHypNA backbone; fluorescein)		20 to 24	high level of fluorescence	evenly distributed in the cytoplasm with preferential staining of the nucleus	~72
